A value given as a limit tells only on which side of the number the result lay.

One may read the IC50 as the concentration that gives 50% inhibition. For orientation: EC50 means the concentration giving half of the maximal effect. For orientation: GI50 means the concentration giving 50% growth inhibition.

In one experiment the test system is SK-N-AS. Description: OncoPanel cell proliferation assay, SK-N-AS. The settings on record: for Cell Count Activity Area: scale 0-10. In kind it is cell-based, human. The protocol: (§1) Cells were grown in RPMI 1640, 10% FBS, 2 mM L-alanyl-L-glutamine, 1 mM Na pyruvate, or a special medium. Cells were seeded into 384-well plates and incubated in a humidified atmosphere of 5% CO2 at 37° C. Compounds were added the day following cell seeding. At the same time, a time zero untreated cell plate was generated. After a 3-day incubation period, cells were fixed and stained to allow fluorescence imaging of nuclei. Compounds (1 mM stock solutions) were serially diluted in half-log steps from the highest test concentration ([…]), and assayed over 10 concentrations with a maximum assay concentration of 0.1% DMSO. Automated fluorescence microscopy was carried out using a Molecular Devices ImageXpress Micro XL high-content imager, and images were collected with a 4× objective. 16-bit TIFF images were acquired and analyzed with MetaXpress 5.1.0.41 software.
(§2) Cell proliferation was measured by the fluorescence intensity of an incorporated nuclear dye. The output is referred to as the relative cell count, where the measured nuclear intensity is transformed to percent of control (POC) using the following formula: […]
(§3) Cellular response parameters were calculated using nonlinear regression to a sigmoidal single-site dose response model:
(§4) Where y is a response measured at concentration x, A and B are the lower and upper limits of the response, C is the concentration at the response midpoint (EC50), and D is the Hill Slope (Ref. 1).
(§5) EC50 is the test compound concentration at the curve inflection point or half the effective response (parameter C of the fitted curve solution). GI50 is the concentration needed to reduce the observed growth by half (midway between the curve maximum and the time zero value). “Cell Count Activity Area” is an estimate of the integrated area above the curve (Barretina, et al. The Cancer Cell Line Encyclopedia enables predictive modelling of anticancer drug sensitivity. Nature 483: 603-607). […] In rare instances, values <0 or >10 may be observed. […] Curve-fitting, calculations, and report generation was performed using a custom data reduction engine and MathIQ based software (AIM).

For a further experiment, the system named is AsPC-1. As to the kind of experiment: OncoPanel cell proliferation assay, AsPC-1. As to conditions: for Cell Count Activity Area: AsPC-1, scale 0-10.
The next experiment relates to RL95-2. Description: OncoPanel cell proliferation assay, RL95-2. Format: cell-based, human. The settings on record: for Cell Count Activity Area: RL95-2, scale 0-10. The protocol:
as §1, §2, §3, §4, §5

In another experiment the test system is CEM-C1. Description: OncoPanel cell proliferation assay, CEM-C1. Format: cell-based, human. The settings on record: for Cell Count Activity Area: CEM-C1, scale 0-10; for IC50: Homo sapiens, 72 h, CEM-C1, 3-day incubation, read-out: Cell Count IC50. The protocol:
as §1, §2, §3, §4, §5

For the next experiment, the system named is U-87 MG. Description: OncoPanel cell proliferation assay, U-87 MG. Format: cell-based, human. The settings on record: for Cell Count Activity Area: scale 0-10. The protocol:
as §1, §2, §3, §4, §5

Another experiment concerns RKOE6. Description: OncoPanel cell proliferation assay, RKOE6. The settings on record: RKOE6, scale 0-10.
A further experiment deals with CHP-212. As to the kind of experiment: OncoPanel cell proliferation assay, CHP-212. The settings on record: for Cell Count Activity Area: CHP-212, scale 0-10.
A further experiment concerns ST486. Description: OncoPanel cell proliferation assay, ST486. Format: cell-based, human. As to conditions: for Cell Count Activity Area: ST486, scale 0-10. The method, then:
as §1, §2, §3, §4, §5

The next experiment concerns SW579. As to the kind of experiment: OncoPanel cell proliferation assay, SW579. In kind it is cell-based, human. The settings on record: for Cell Count Activity Area: SW579, scale 0-10. The protocol: as §1, §2, §3, §4, §5
For another experiment, the system named is A388. As to the kind of experiment: OncoPanel cell proliferation assay, A388. In kind it is cell-based, human. The protocol: as §1, with “Cells” for “Cells were grown in RPMI 1640, 10% FBS, 2 mM L-alanyl-L-glutamine, 1 mM Na pyruvate, or a special medium. Cells”
as §2, §3, §4
GI50 is the concentration needed to reduce the observed growth by half (midway between the curve maximum and the time zero value). […] In rare instances, values <0 or >10 may be observed. […] Curve-fitting, calculations, and report generation was performed using a custom data reduction engine and MathIQ based software (AIM).

The next experiment concerns TF-1. As to the kind of experiment: OncoPanel cell proliferation assay, TF-1. In kind it is cell-based, human. The settings on record: for Cell Count Activity Area: TF-1, scale 0-10. The method, then: as §1, §2, §3, §4, §5
For another experiment, the system named is SHP-77. Description: OncoPanel cell proliferation assay, SHP-77. As to conditions: for Cell Count Activity Area: SHP-77, scale 0-10.
Setting [1] is: Homo sapiens, 72 h, 3-day incubation, read-out: Cell Count IC50.

Method for AsPC-1: (§6) Cells were seeded into 384-well plates and incubated in a humidified atmosphere of 5% CO2 at 37° C. Compounds were added the day following cell seeding. At the same time, a time zero untreated cell plate was generated. After a 3-day incubation period, cells were fixed and stained to allow fluorescence imaging of nuclei. Compounds (1 mM stock solutions) were serially diluted in half-log steps from the highest test concentration (1 micromol), and assayed over 10 concentrations with a maximum assay concentration of 0.1% DMSO. Automated fluorescence microscopy was carried out using a Molecular Devices ImageXpress Micro XL high-content imager, and images were collected with a 4× objective. 16-bit TIFF images were acquired and analyzed with MetaXpress 5.1.0.41 software.
Method for CHP-212: as §6
Method for RKOE6: as §6
Method for SHP-77: as §6

Regarding `CO[C@H]1C[C@@H]2CC[C@@H](C)[C@@](O)(O2)C(=O)C(=O)N2CCCC[C@H]2C(=O)O[C@H]([C@H](C)C[C@@H]2CC[C@@H](O)[C@H](OC)C2)CC(=O)[C@H](C)/C=C(\C)[C@@H](O)[C@@H](OC)C(=O)[C@H](C)C[C@H](C)/C=C/C=C/C=C/1C` [Rapamycin, reference compound], the IC50 with SK-N-AS (setting [1]) was more than 1000 nM; in the experiment on AsPC-1 (Homo sapiens, ASPC1, 72 h, read-out: Cell Count IC50), more than 1000 nM; in the experiment with RL95-2 (Homo sapiens, 72 h, RL95-2, 3-day incubation, read-out: Cell Count IC50), more than 1000 nM; in the experiment with CEM-C1, more than 1000 nM; in the experiment with U-87 MG (setting [1]), more than 1000 nM; with CHP-212 (Homo sapiens, CHP-212, 72 h, read-out: Cell Count IC50), more than 1000 nM. Besides, the IC50 in the experiment with ST486 (Homo sapiens, 72 h, ST486, 3-day incubation, read-out: Cell Count IC50) was more than 1000 nM; with SW579 (Homo sapiens, 72 h, SW579, 3-day incubation, read-out: Cell Count IC50) it was more than 1000 nM; in the experiment with A388 (Homo sapiens, 72 h, A388, 3-day incubation, read-out: Cell Count IC50) it was more than 1000 nM; in the experiment on TF-1 (Homo sapiens, 72 h, TF-1, 3-day incubation, read-out: Cell Count IC50), more than 1000 nM; in the experiment on SHP-77 (Homo sapiens, SHP77, 72 h, read-out: Cell Count IC50) it was more than 1000 nM. For the same compound, the “Cell Count Activity Area” value is 3.58 in the experiment with SK-N-AS; 1.48 in the experiment on AsPC-1; 4.24 in the experiment on RL95-2; 3.61 in the experiment with CEM-C1; 3.79 in the experiment on U-87 MG; 4.61 in the experiment with RKOE6. Further, the “Cell Count Activity Area” value in the experiment on CHP-212 worked out at 4.13; in the experiment with ST486, 3.99; with SW579 it was 4.77; in the experiment on TF-1, 1.52; in the experiment on SHP-77, 1.13. Besides, the EC50 was more than 1000 nM in the experiment with AsPC-1 (Homo sapiens, ASPC1, 72 h, read-out: Cell Count EC50); more than 1000 nM in the experiment with A388 (Homo sapiens, 72 h, A388, 3-day incubation, read-out: Cell Count EC50); more than 1000 nM with TF-1 (Homo sapiens, 72 h, TF-1, 3-day incubation, read-out: Cell Count EC50); more than 1000 nM in the experiment on SHP-77 (Homo sapiens, SHP77, 72 h, read-out: Cell Count EC50). Moreover, the GI50 in the experiment with AsPC-1 (Homo sapiens, ASPC1, 72 h, read-out: Cell Count GI50) was more than 1000 nM; with RL95-2 (Homo sapiens, 72 h, RL95-2, 3-day incubation, read-out: Cell Count GI50), 0.13 nM; with A388 (Homo sapiens, 72 h, A388, 3-day incubation, read-out: Cell Count GI50) it was more than 1000 nM; in the experiment with TF-1 (Homo sapiens, 72 h, TF-1, 3-day incubation, read-out: Cell Count GI50) it was more than 1000 nM; with SHP-77 (Homo sapiens, SHP77, 72 h, read-out: Cell Count GI50), more than 1000 nM.

For `CN[C@@H]1C[C@H]2O[C@@](C)([C@@H]1OC)n1c3ccccc3c3c4c(c5c6ccccc6n2c5c31)C(=O)NC4` [Staurosporine, reference compound], the EC50 was 1.7 nM in the experiment with SK-N-AS (Homo sapiens, 72 h, 3-day incubation, read-out: Cell Count EC50) and 0.52 nM in the experiment on SW579 (Homo sapiens, 72 h, SW579, 3-day incubation, read-out: Cell Count EC50). The “Cell Count Activity Area” value in the experiment with SK-N-AS was determined as 4.83; with AsPC-1, 3.28; with RL95-2, 3.87; in the experiment with CEM-C1 it was 4.28; in the experiment on U-87 MG it was 3.25; in the experiment on RKOE6 it was 3.96. The “Cell Count Activity Area” value came to 4.80 in the experiment with CHP-212; 4.89 with ST486; 6.09 in the experiment on SW579; 4.99 in the experiment on A388 (A388, scale 0-10); 3.31 in the experiment with TF-1; 3.16 in the experiment with SHP-77. Besides, the concentration for half-maximal inhibition (IC50) in the experiment on CEM-C1 was 9.2 nM.

(Values after patent US20210024542A1 (Torcept Therapeutics, Inc., priority 2018, published 2021).)
